Assay results as given in article PMC12494798, “Anle138b binds predominantly to the central cavity in lipidic Aβ₄₀ fibrils and modulates fibril formation” (Nature Communications, 2025).

Biological target: T1, Aβ₄₀ (L1 lipidic Aβ₄₀ fibril, amyloid beta 1-40) (Homo sapiens, UniProt P05067)
T1 construct: gene APP; Aβ(1-40), type 1 lipidic (L1) fibril of two protofilaments
Test: ITC on preformed L1 fibrils; supported by DNP-enhanced NHHC ssNMR contacts, (H)CANH titration and cryo-EM density
Type: binding

T1 sequence (P05067 672-711): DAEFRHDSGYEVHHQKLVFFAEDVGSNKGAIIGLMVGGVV

- Kd: 640 nM
Compound: Brc1cccc(-c2cc(-c3ccc4c(c3)OCO4)n[nH]2)c1 [anle138b, 3-(1,3-benzodioxol-5-yl)−5-(3-bromophenyl)−1H-pyrazole]
